Measurements: US6951729B1, “High throughput screening method for biological agents affecting fatty acid biosynthesis” (Affinium Pharmaceuticals, Inc., priority 1999, dated 2005)

Assays:
FabH [1] = biological target: FabH (Escherichia coli, UniProt P0A6R0); details: Heath et al. 1996; cited from earlier work
FabI = FabI (Escherichia coli, UniProt P0AEK4); details: Heath et al. 1996; cited from earlier work
FabH [2] = details: through formation of dead end inhibition complexes with enzyme
[3] = test system: bacterial fatty acid biosynthesis; details: cited from earlier work
FabK = FabK activity assay, activation by monovalent cations; type: biochemical, Streptococcus pneumoniae; details: NH4+ at 100 mM
Description: FabK catalyses the reduction of enoyl-ACPs with the concommitant oxidation of NADH. Crotonoyl-ACP can be prepared as described below. The reduction of crotonoyl-ACP to butyryl-ACP can be monitored by following the change in absorbance at 340 nm as NADH is oxidised.
Assays were carried out in Costar 3696 half-area plates in a fmal assay volume of 150 μl on a Spectramax platereader. Substrates, NADH and crotonoyl ACP, were incubated with FabK enzyme in […] N-[2-acetamido]-2 iminodiacetic acid (ADA), pH 6.5, 100 mM NH4Cl, 4% glycerol at 30° C. and the reaction monitored at 340 nm. This assaying can also be performed using crotonyl CoA, NADPH or an NADH analogue as a substrate.

Sequence of FabI (P0AEK4 whole entry): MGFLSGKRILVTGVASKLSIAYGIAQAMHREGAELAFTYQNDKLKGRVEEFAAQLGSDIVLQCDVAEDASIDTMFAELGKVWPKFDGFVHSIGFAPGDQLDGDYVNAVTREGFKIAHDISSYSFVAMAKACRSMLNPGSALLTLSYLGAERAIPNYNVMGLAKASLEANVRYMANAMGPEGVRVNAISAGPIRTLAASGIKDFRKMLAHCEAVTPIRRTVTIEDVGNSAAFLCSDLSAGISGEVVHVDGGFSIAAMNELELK
Sequence of FabH (Escherichia coli, UniProt P0A6R0) (P0A6R0 whole entry): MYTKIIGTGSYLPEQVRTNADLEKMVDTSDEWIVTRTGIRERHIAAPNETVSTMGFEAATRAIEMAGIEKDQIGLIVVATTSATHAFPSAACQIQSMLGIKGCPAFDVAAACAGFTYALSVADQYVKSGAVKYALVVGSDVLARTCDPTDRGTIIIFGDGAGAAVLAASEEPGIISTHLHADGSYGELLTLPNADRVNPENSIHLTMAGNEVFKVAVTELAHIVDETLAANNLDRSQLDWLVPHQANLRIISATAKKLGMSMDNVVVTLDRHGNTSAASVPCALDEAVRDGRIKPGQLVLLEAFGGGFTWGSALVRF

For palmitoyl-ACP, the “feedback inhibition of FabH” value (FabH [1]) is listed as “feedback inhibition” and the “feedback inhibition of FabI” value (FabI) is listed as “feedback inhibition”.

In the case of Acetyl-ACP, the “inhibition of FabH” value (FabH [2]) is reported as “inhibitor of FabH”.

In the case of `C/C=C/C/C=C/CCC(=O)[C@H]1O[C@H]1C(N)=O` [Cerulenin], the “inhibition of bacterial fatty acid biosynthesis” value [3] is listed as “potent inhibitors”.

In the case of `C=C/C(C)=C/[C@@]1(C)SC(=O)C(C)=C1O` [thiolactomycin], the “inhibition of bacterial fatty acid biosynthesis” value [3] is listed as “potent inhibitors”.

In the case of `N` [NH4^+], the “activation of the FabK reaction over the reaction with no monovalent cations” value (FabK) is reported as “about 300 fold”.
